Test results: patent US20020037872A1, “N6 heterocyclic 5' modified adenosine derivatives” (CV Therapeutics, Inc., priority 1999, published 2002)
pKi: −log10 of the molar value. Where two headings read alike, the source gives them in different places.

Columns and labels:
A1 receptor = molecular target: T1, A1 receptor (Mesocricetus auratus, UniProt A0A1U8BVR4); assay: Competitive binding assay, DDT1 cell membranes, [3H]CCPA; set-up: species or system hamster; conditions: [3H]CCPA 2 nM
T1 construct: endogenous in cells; host or cells: DDT1 (DDT1 MF-2) hamster vas deferens smooth muscle cells
T1 sequence (A0A1U8BVR4 1-326): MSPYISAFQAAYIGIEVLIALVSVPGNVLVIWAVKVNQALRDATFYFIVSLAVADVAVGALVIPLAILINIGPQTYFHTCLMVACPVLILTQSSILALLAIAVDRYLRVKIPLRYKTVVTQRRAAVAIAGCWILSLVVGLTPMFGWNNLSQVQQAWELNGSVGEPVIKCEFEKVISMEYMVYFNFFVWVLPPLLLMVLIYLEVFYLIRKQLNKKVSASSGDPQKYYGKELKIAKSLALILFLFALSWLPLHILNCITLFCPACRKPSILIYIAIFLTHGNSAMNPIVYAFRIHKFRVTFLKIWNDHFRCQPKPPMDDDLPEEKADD
Procedure: Cells were subcultured twice weekly by dispersion in Hank's Balanced Salt Solution (HBSS) without the divalent cations and containing 1 mM EDTA. The cells were then seeded in growth medium at a density of 1.2×10^5 cells per plate and experiments were performed 4 days later at approximately one day preconfluence.
(§1) Attached cells were washed twice with HBSS (2×10 ml), scraped free of the plate with the aid of a rubber policeman in 5 ml of 50 mM Tris-HCI buffer pH 7.4 at 4° C. and the suspension homogenized for 10 s. The suspension was then centrifuged at 27,000×g for 10 min. The pellet was resuspended in homogenization buffer by vortexing and centrifuged as described above. The final pellet was resuspended in 1 vol of 50 mM Tris-HCI buffer pH 7.4 containing 5 mM MgCl2 for A1 AdoR assays. For the [^35S]GTPγS binding assay the final pellet was resuspended in 50 mM Tris-HCI pH 7.4 containing 5 mM MgCl2, 100 mM NaCl and 1 mM dithiothreitol. This membrane suspension was then placed in liquid nitrogen for 10 min, thawed and used for assays.
Competitive Binding Assay Pig striatum were prepared by homogenation in 50 mM Tris buffer (5× volume of tissue mass pH=7.4). After centrifilgation at 19,000 rpm for 25 minutes at 4° C., the supernatant was discarded, and the process was repeated twice. Compositions of this invention were assayed to determine their affinity for the A1 receptor in a pig striatum membrane prep or a DDT, membrane prep. Briefly, 0.2 mg of pig striatal membranes or DDT, cell membranes were treated with adenosine deaminase and 50 mM Tris buffer (pH=7.4) followed by mixing. To the pig membranes was added 2 μL of serially diluted DMSO stock solution of the compounds of this invention at concentrations ranging from 100 microM to 10 nM. The control received 2 microL of DMSO alone, then the antagonist [^3H] 8-cyclopentylxanthine (CPX) for pig striatum or the agonist [^3H] 2-chloro-6-cyclopentyladenosine (CCPA) for DDT, membranes in Tris buffer (50 mnM, pH of 7.4) was added to achieve a final concentration of 2 nM. After incubation at 23 C for 2 h, the solutions were filtered using a membrane harvester using multiple washing of the membranes (3×). The filter disks were counted in scintillation cocktail affording the amount of displacement of triated CPX or by the competitive binding compositions of this invention. In the case of the DDT1 cell membranes, some of the determinations of binding affinity (Ki) were made in the presence of Gpp(NH)p as noted in Table 1 (note: Gpp(NH)p shifts the receptor to a low affinity form). Greater than a 5 point curve was used to generate Ki's and the number of experiments is indicated in the column marked in Table 1 below.

A1 adenosine receptor = molecular target: T2, A1 adenosine receptor (Mesocricetus auratus, UniProt A0A1U8BVR4); assay: [35S]GTPγS binding assay, A1-agonist stimulated; assay type: biochemical, hamster; conditions: agonist stimulated [35S]GTPγS binding, CPA = 100%
T2 construct: endogenous in cells; host or cells: DDT1 (DDT1 MF-2) hamster vas deferens smooth muscle cells
T2 sequence (A0A1U8BVR4 1-326): T1 sequence (A0A1U8BVR4 1-326)
Procedure: as §1, with “for assays. The protein content was determined by the method of Bradford (1976) using bovine serum albumin as standard.” for “for assays.”
A1-agonist stimulated [^35S]GTPγS binding was determined by a modification of the method described by Giersckik et al. (1991) and Lorenzen et al. (1993). […] Nonspecific binding was determined by the addition of 10 μM GTPγS. […] Previous reports have shown that agonist stimulated [^35S]GTPγS binding was dependent on the presence of GDP (Gierschik et al., 1991; Lorenzen et al., 1993; Traynor & Nahorski, 1995). […] In saturation experiments, 0.5 nM [^35S]GTPγS was incubated with 0.5-1000 nM GTPγS. At the end of the incubation, each suspension was filtered and the retained radioactivity determined as described above.

[1] = DDT1 cell membranes, read-out: Ki-DDT1 cell membrane
[2] = in presence of Gpp(NH)p (low affinity form), read-out: Ki - DDT1 cell membrane In presence of Gpp (NH)p

CNC(=O)OC[C@H]1O[C@@H](n2cnc3c(N[C@@H]4CCOC4)nc(Cl)nc32)[C@H](O)[C@@H]1O [Compound 13, [(5-{6-[((3R)oxolan-3-yl)amino]-2-chloropurin-9-yl}(3S,2R,4R,5R)3,4dihydroxyoxolan-2-yl)methoxy]-N-methylcarboxamide]
pKi (A1 receptor; [1]): 6.89 | Emax (A1 adenosine receptor): 77%

CNC(=O)SC[C@H]1O[C@@H](n2cnc3c(N[C@@H]4CCOC4)ncnc32)[C@H](O)[C@@H]1O [Compound 22, [(5-{6-[((3R)oxolan-3-yl)amino]purin-9-yl}(2S,3S,4R,5R)-3,4&hydroxyoxolan-2-yl)methythio]-N-methylcarboxamide]
pKi (A1 receptor; [1]): 7.44 | Emax (A1 adenosine receptor): 98%

CCNC(=O)OC[C@H]1O[C@@H](n2cnc3c(N[C@@H]4CCOC4)ncnc32)[C@H](O)[C@@H]1O [Compound 25, [(5-{6-[((3R)oxolan-3-yl)amino]purin-9-yl}(3S,2R,4R,5R)-3,4-dihydroxyoxolan-2-yl)methoxy]-N-ethylcarboxamide]
pKi (A1 receptor; [2]): 6.14

CCCNC(=O)OCC1OC(n2cnc3c(N[C@@H]4CCOC4)ncnc32)C(O)C1O (stereo partly drawn) [Compound 26]
pKi (A1 receptor; [2]): 6.29 | Emax (A1 adenosine receptor): 73%

CCCCNC(=O)OCC1OC(n2cnc3c(N[C@@H]4CCOC4)ncnc32)C(O)C1O (stereo partly drawn) [Compound 27]
pKi (A1 receptor; [1]): 5.79 | pKi (A1 receptor; [2]): 6.95 | Emax (A1 adenosine receptor): 44%

O=C(NC1CCCC1)OCC1OC(n2cnc3c(N[C@@H]4CCOC4)ncnc32)C(O)C1O (stereo partly drawn) [Compound 28]
pKi (A1 receptor; [1]): 7.49 | pKi (A1 receptor; [2]): 6.09

O=C(NCc1ccccc1)OC[C@H]1O[C@@H](n2cnc3c(N[C@@H]4CCOC4)ncnc32)[C@H](O)[C@@H]1O [Compound 29, [(5-{6-[((3R)oxolan-3-yl)amino]purin-9-yl}(3S,2R,4R,5R)-3,4dihydroxyoxolan-2-yl)methoxy]-N-benzylcarboxamide]
pKi (A1 receptor; [2]): 6.32

O=C(NCc1ccc(F)cc1)OCC1OC(n2cnc3c(N[C@@H]4CCOC4)ncnc32)C(O)C1O (stereo partly drawn) [Compound 30]
pKi (A1 receptor; [1]): 5.66 | pKi (A1 receptor; [2]): 5.76

O=C(NC1CCCCC1)OC[C@H]1O[C@@H](n2cnc3c(N[C@@H]4CCOC4)ncnc32)[C@H](O)[C@@H]1O [Compound 31, {(5-{6-[((3R)oxolan-3-yl)amino]purin-9-yl}(3S,2R,4R,5R)3,4-dihydroxyoxolan-2-yl)methoxy]-N-cyclohexylcarboxamide]
pKi (A1 receptor; [2]): 5.96

CC(C)NC(=O)OCC1OC(n2cnc3c(N[C@@H]4CCOC4)ncnc32)C(O)C1O (stereo partly drawn) [Compound 32]
pKi (A1 receptor; [2]): 6.37 | Emax (A1 adenosine receptor): 91%

O=C(NC1CC1)OCC1OC(n2cnc3c(N[C@@H]4CCOC4)ncnc32)C(O)C1O (stereo partly drawn) [Compound 33]
pKi (A1 receptor; [2]): 5.77

CN(C)C(=O)OC[C@H]1O[C@@H](n2cnc3c(N[C@@H]4CCOC4)ncnc32)[C@H](O)[C@@H]1O [Compound 44, {(5-{6-[((3R)oxolan-3-yl)amino]purin-9-yl}(3S,2R,4R,5R)-3,4-dihydroxyoxolan-2-yl)methoxy]-N,N-dimethylcarboxamide]
pKi (A1 receptor; [2]): 5.73

CNC(=S)OC[C@H]1O[C@@H](n2cnc3c(N[C@@H]4CCOC4)ncnc32)[C@H](O)[C@@H]1O [Compound 45, 2-{6-[((3R)oxolan-3-yl)amino]purin-9-yl}(4S,2R,3R,5R)-5 {1(methylamino)thioxomethoxylmethyl}oxolane3,4diol]
pKi (A1 receptor; [2]): 6.85 | Emax (A1 adenosine receptor): 77%

CCNC(=S)OC[C@H]1O[C@@H](n2cnc3c(N[C@@H]4CCOC4)ncnc32)[C@H](O)[C@@H]1O [Compound 46, 2-{6[((3R)oxolan-3-yl)amino]purin-9-yl}(4S,2R,3R,5R)-5-{[(ethylamino)thioxomethoxy]methyl}oxolane3,4diol]
pKi (A1 receptor; [2]): 6.87 | Emax (A1 adenosine receptor): 77%

CC(C)NC(=S)OC[C@H]1O[C@@H](n2cnc3c(N[C@@H]4CCOC4)ncnc32)[C@H](O)[C@@H]1O [Compound 47, 2-{6-[((3R)oxolan-3-yl)amino]purin-9-yl}(4S,2R,3R,5R)-5({[(methylethyl)amino]thioxomethoxy}methyl)oxolane3,4-diol]
pKi (A1 receptor; [2]): 6.96 | Emax (A1 adenosine receptor): 84%

CCCCNC(=S)OCC1OC(n2cnc3c(N[C@@H]4CCOC4)ncnc32)C(O)C1O (stereo partly drawn) [Compound 48]
pKi (A1 receptor; [2]): 6.03 | Emax (A1 adenosine receptor): 70%

CCCNC(=S)OC[C@H]1O[C@@H](n2cnc3c(N[C@@H]4CCOC4)ncnc32)[C@H](O)[C@@H]1O [Compound 49, 2-{6-[((3R)oxolan-3-yl)amino]purin-9-yl}(4S,2R,3R,5R)-5 {[(propylamino)thioxomethoxy]methyl}oxolane3,4-diol]
pKi (A1 receptor; [2]): 6.84 | Emax (A1 adenosine receptor): 89%

OC1C(COC(=S)N2CCCCC2)OC(n2cnc3c(N[C@@H]4CCOC4)ncnc32)C1O (stereo partly drawn) [Compound 50]
pKi (A1 receptor; [1]): 6.19 | pKi (A1 receptor; [2]): 5.71 | Emax (A1 adenosine receptor): 88%

O[C@@H]1[C@H](O)[C@@H](COC(=S)NC2CCCC2)O[C@H]1n1cnc2c(N[C@@H]3CCOC3)ncnc21 [Compound 51, 2-{6-[((3R)oxolan-3-yl)amino]purin-9-yl}(4S,2R,3R,5R)-5{[(cyclopentylamino)thioxomethoxy]methyl}oxolane3,4-diol]
pKi (A1 receptor; [2]): 7.06

O[C@@H]1[C@H](O)[C@@H](COC(=S)N2CCCC2)O[C@H]1n1cnc2c(N[C@@H]3CCOC3)ncnc21 [Compound 52]
pKi (A1 receptor; [2]): 5.95 | GTPγS (A1 adenosine receptor): 77%

CN(C)C(=S)OC[C@H]1O[C@@H](n2cnc3c(N[C@@H]4CCOC4)ncnc32)[C@H](O)[C@@H]1O [Compound 53, 2-{6-[((3R)oxolan-3-yl)amino]purin-9-yl}(4S,2R,3R,5R)-5-{[(dimethylamino)thioxomethoxy]methyl}oxolane-3,4-diol]
pKi (A1 receptor; [1]): 6.61 | pKi (A1 receptor; [2]): 5.68 | Emax (A1 adenosine receptor): 85%

O=C(O)CNC(=O)OC[C@H]1O[C@@H](n2cnc3c(N[C@@H]4CCOC4)ncnc32)[C@H](O)[C@@H]1O [Compound 68, 2-{[(5-{6-[((3R)oxolan-3-yl)amino]purin-9-yl}(3S,2R,4R,5R)-3,4-dihydroxyoxolan-2-yl)methoxy]carbonylamino}acetic acid]
Emax (A1 adenosine receptor): 76%

O=C(NC[C@H]1O[C@@H](n2cnc3c(N[C@@H]4CCOC4)ncnc32)[C@H](O)[C@@H]1O)NC1CCCC1 [Compound 76, N-[(5-{6[((3R)oxolan-3yl)amino]purin-9-yl}(3S,2R,4R,5R)3,4-dihydroxyoxolan-2-yl)methyl](cyclopentylamino)carboxamide]
pKi (A1 receptor; [1]): 4.94

CCNC(=O)NCC1OC(n2cnc3c(NC4CCOC4)ncnc32)C(O)C1O [Compound 79, N-[(5-{16[((3R)oxolan-3-yl)amino]purin-9-yI}(3S,2R,4R,5R3,4-dihydroxyoxolan-2-yl)methyl](ethylamino)carboxamide]
pKi (A1 receptor; [2]): 6.78
